Laboratory results from patent publication US11439618B2, “Compositions and methods for lowering triglycerides” (Amarin Pharmaceuticals Ireland Limited, priority 2009, dated 2022).

Assay: Essential fatty acid (EFA) parameters in plasma and RBC, gas chromatography of fatty acid methyl esters
Assay type: in vivo, human
Method: Blood samples (10 mL) were collected at Visit 1 (screening) and at Visits 4, 5 and 6. Analysis was performed by MSR Lipid Analysis, Scottish Crop Research Institute, Dundee, UK. The screening sample acted as baseline for the EFA measurements. Lipid was extracted from plasma, serum and RBC suspensions and converted into fatty acid methyl esters which were analyzed by gas chromatography to give fatty acid profiles as micrograms fatty acid per gram of sample (μgFA/g) and normalized area percent.
RBC and plasma EFA data were collected at baseline, Day 14, 28 and 42 and summarized by visit for each treatment group. Change from baseline and percent change from baseline were also summarized. ANCOVA comparison of ethyl-EPA dose groups and ethyl-EPA versus placebo was performed.
Notable changes for these parameters occurred in the ethyl-EPA treatment groups at Days 14, 28 and 42 compared to placebo.

Compound: CC/C=C\C/C=C\C/C=C\C/C=C\C/C=C\CCCC(=O)OCC [Ethyl-EPA, all-cis eicosa-5,8,11,14,17-pentaenoic acid ethyl ester]
- AA Mean at Baseline (RBC, 1 g daily group, Baseline): 171.2 µg/g
- DGLA Mean at Baseline (RBC, 1 g daily group, Baseline): 23.0 µg/g
- DHA Mean at Baseline (RBC, 1 g daily group, Baseline): 66.5 µg/g
- DPAn-3 Mean at Baseline (RBC, 1 g daily group, Baseline): 34.1 µg/g
- EPA Mean at Baseline (RBC, 1 g daily group, Baseline): 19.8 µg/g
- EPA/AA Mean (SD) at Baseline (RBC, 1 g daily group, Baseline): 0.1 (0.07)
- AA Mean change from Baseline (RBC, 1 g daily, Day 14): -8.1 µg/g
- DGLA Mean change from Baseline (RBC, 1 g daily, Day 14): -2.7 µg/g
- DHA Mean change from Baseline (RBC, 1 g daily, Day 14): -4.6 µg/g
- DPAn-3 Mean change from Baseline (RBC, 1 g daily, Day 14): 0.9 µg/g
- EPA Mean change from Baseline (RBC, 1 g daily, Day 14): 12.3 µg/g
- EPA/AA Mean (SD) change from Baseline (RBC, 1 g daily, Day 14): 0.1 (0.04)
- AA Mean change from Baseline (RBC, 1 g daily, Day 28): -17.0 µg/g
- DGLA Mean change from Baseline (RBC, 1 g daily, Day 28): -3.8 µg/g
- DHA Mean change from Baseline (RBC, 1 g daily, Day 28): -6.4 µg/g
- DPAn-3 Mean change from Baseline (RBC, 1 g daily, Day 28): 3.3 µg/g
- EPA Mean change from Baseline (RBC, 1 g daily, Day 28): 14.5 µg/g
- EPA/AA Mean (SD) change from Baseline (RBC, 1 g daily, Day 28): 0.1 (0.05)
- AA Mean change from Baseline (RBC, 1 g daily, Day 42): -14.2 µg/g
- DGLA Mean change from Baseline (RBC, 1 g daily, Day 42): -3.5 µg/g
- DHA Mean change from Baseline (RBC, 1 g daily, Day 42): -7.0 µg/g
- DPAn-3 Mean change from Baseline (RBC, 1 g daily, Day 42): 6.5 µg/g
- EPA Mean change from Baseline (RBC, 1 g daily, Day 42): 17.6 µg/g
- EPA/AA Mean (SD) change from Baseline (RBC, 1 g daily, Day 42): 0.1 (0.06)
- AA LS Mean, 1 or 2 g versus 4 g (RBC, 1 g versus 4 g): 8.4 µg/g
- DGLA LS Mean, 1 or 2 g versus 4 g (RBC, 1 g versus 4 g): 1.5 µg/g
- DHA LS Mean, 1 or 2 g versus 4 g (RBC, 1 g versus 4 g): 1.0 µg/g
- DPAn-3 LS Mean, 1 or 2 g versus 4 g (RBC, 1 g versus 4 g): -6.2 µg/g
- EPA LS Mean, 1 or 2 g versus 4 g (RBC, 1 g versus 4 g): -24.4 µg/g
- EPA/AA LS Mean, 1 or 2 g versus 4 g (RBC, 1 g versus 4 g): −0.18
- AA Mean at Baseline (RBC, 2 g daily group, Baseline): 172.8 µg/g
- DGLA Mean at Baseline (RBC, 2 g daily group, Baseline): 23.0 µg/g
- DHA Mean at Baseline (RBC, 2 g daily group, Baseline): 64.8 µg/g
- DPAn-3 Mean at Baseline (RBC, 2 g daily group, Baseline): 33.2 µg/g
- EPA Mean at Baseline (RBC, 2 g daily group, Baseline): 18.9 µg/g
- EPA/AA Mean (SD) at Baseline (RBC, 2 g daily group, Baseline): 0.1 (0.06)
- AA Mean change from Baseline (RBC, 2 g daily, Day 14): -3.1 µg/g
- DGLA Mean change from Baseline (RBC, 2 g daily, Day 14): -2.6 µg/g
- DHA Mean change from Baseline (RBC, 2 g daily, Day 14): -2.0 µg/g
- DPAn-3 Mean change from Baseline (RBC, 2 g daily, Day 14): 5.6 µg/g
- EPA Mean change from Baseline (RBC, 2 g daily, Day 14): 26.9 µg/g
- EPA/AA Mean (SD) change from Baseline (RBC, 2 g daily, Day 14): 0.2 (0.04)
- AA Mean change from Baseline (RBC, 2 g daily, Day 28): -14.1 µg/g
- DGLA Mean change from Baseline (RBC, 2 g daily, Day 28): -4.5 µg/g
- DHA Mean change from Baseline (RBC, 2 g daily, Day 28): -6.2 µg/g
- DPAn-3 Mean change from Baseline (RBC, 2 g daily, Day 28): 9.4 µg/g
- EPA Mean change from Baseline (RBC, 2 g daily, Day 28): 32.9 µg/g
- EPA/AA Mean (SD) change from Baseline (RBC, 2 g daily, Day 28): 0.02 (0.06)
- AA Mean change from Baseline (RBC, 2 g daily, Day 42): -18.8 µg/g
- DGLA Mean change from Baseline (RBC, 2 g daily, Day 42): -5.3 µg/g
- DHA Mean change from Baseline (RBC, 2 g daily, Day 42): -6.3 µg/g
- DPAn-3 Mean change from Baseline (RBC, 2 g daily, Day 42): 13.2 µg/g
- EPA Mean change from Baseline (RBC, 2 g daily, Day 42): 38.3 µg/g
- EPA/AA Mean (SD) change from Baseline (RBC, 2 g daily, Day 42): 0.3 (0.06)
- AA LS Mean, 1 or 2 g versus 4 g (RBC, 2 g versus 4 g): 9.8 µg/g
- DGLA LS Mean, 1 or 2 g versus 4 g (RBC, 2 g versus 4 g): 1.5 µg/g
- DHA LS Mean, 1 or 2 g versus 4 g (RBC, 2 g versus 4 g): 1.0 µg/g
- DPAn-3 LS Mean, 1 or 2 g versus 4 g (RBC, 2 g versus 4 g): -2.5 µg/g
- EPA LS Mean, 1 or 2 g versus 4 g (RBC, 2 g versus 4 g): -11.8 µg/g
- EPA/AA LS Mean, 1 or 2 g versus 4 g (RBC, 2 g versus 4 g): −0.11
- AA Mean (SD) at Baseline (RBC, 4 g daily group, Baseline): 171.0 (25.17) μg/g
- DGLA Mean at Baseline (RBC, 4 g daily group, Baseline): 24.0 µg/g
- DHA Mean at Baseline (RBC, 4 g daily group, Baseline): 68.3 µg/g
- DPAn-3 Mean at Baseline (RBC, 4 g daily group, Baseline): 34.5 µg/g
- EPA Mean at Baseline (RBC, 4 g daily group, Baseline): 19.8 µg/g
- EPA/AA Mean (SD) at Baseline (RBC, 4 g daily group, Baseline): 0.1 (0.04)
- AA Mean (SD) change from Baseline (RBC, 4 g daily, Day 14): −15.7 (26.76) μg/g
- DGLA Mean change from Baseline (RBC, 4 g daily, Day 14): -5.3 µg/g
- DHA Mean change from Baseline (RBC, 4 g daily, Day 14): -6.9 µg/g
- DPAn-3 Mean change from Baseline (RBC, 4 g daily, Day 14): 5.4 µg/g
- EPA Mean change from Baseline (RBC, 4 g daily, Day 14): 39.5 µg/g
- EPA/AA Mean (SD) change from Baseline (RBC, 4 g daily, Day 14): 0.3 (0.07)
- AA Mean (SD) change from Baseline (RBC, 4 g daily, Day 28): −22.8 (29.56) μg/g
- DGLA Mean change from Baseline (RBC, 4 g daily, Day 28): -7.1 µg/g
- DHA Mean change from Baseline (RBC, 4 g daily, Day 28): -8.7 µg/g
- DPAn-3 Mean change from Baseline (RBC, 4 g daily, Day 28): 12.4 µg/g
- EPA Mean change from Baseline (RBC, 4 g daily, Day 28): 50.2 µg/g
- EPA/AA Mean (SD) change from Baseline (RBC, 4 g daily, Day 28): 0.4 (0.11)
- AA Mean (SD) change from Baseline (RBC, 4 g daily, Day 42): −34.4 (31.44) μg/g
- DGLA Mean change from Baseline (RBC, 4 g daily, Day 42): -8.0 µg/g
- DHA Mean change from Baseline (RBC, 4 g daily, Day 42): -13.8 µg/g
- DPAn-3 Mean change from Baseline (RBC, 4 g daily, Day 42): 16.2 µg/g
- EPA Mean change from Baseline (RBC, 4 g daily, Day 42): 52.5 µg/g
- EPA/AA Mean (SD) change from Baseline (RBC, 4 g daily, Day 42): 0.4 (0.14)
- Difference in EPA, AA (RBC only), DPAn-3, DGLA (1 g only for plasma) and EPA/AA ratio levels, 4 g compared to 1 g and 2 g (plasma and RBC, LS means, p≤0.05): significantly (LS means, p≤0.05) different
